Values joined by “and” are separate entries in the source; they are usually repeats but may differ in a detail not shown here. Identical values can stand only once. Like-named read-outs stand apart in the source and are kept apart here.
System: C. elegans
[1] = Table S2, C. elegans SS assay, 110 μM, 0 h, averages of 4 data points
[2] = Table S2, C. elegans SS assay, 110 μM, 24 h, averages of 4 data points

| SMILES | Percentage of motility inhibition 0 h [1] | Percentage of motility inhibition 24 h [2] | Percentage of motility inhibition 0 h (110 µM) [%] | Percentage of motility inhibition 24 h (110 µM) [%] |
| --- | --- | --- | --- | --- |
| C[C@H](CC[C@@H](O[C@@H]1O[C@H](CO)[C@@H](O)[C@H](O)[C@H]1O[C@H]1O[C@@H](CO)[C@H](O)[C@@H](O)[C@@H]1O)C(C)(C)O)C1CC[C@@]2(C)C3CC=C4C(CC[C@H](O)C4(C)C)[C@]3(C)C(=O)C[C@]12C (stereo partly drawn) [11-Oxomogroside IIa] | 0% | 0% | – | – |
| C[C@H](CC[C@@H](O[C@@H]1O[C@H](CO[C@@H]2O[C@H](CO)[C@@H](O)[C@H](O)[C@H]2O)[C@@H](O)[C@H](O)[C@H]1O[C@@H]1O[C@H](CO)[C@@H](O)[C@H](O)[C@H]1O)C(C)(C)O)[C@H]1CC[C@@]2(C)[C@@H]3CC=C4[C@@H](CC[C@H](O[C@@H]5O[C@H](CO[C@@H]6O[C@H](CO)[C@@H](O)[C@H](O)[C@H]6O)[C@@H](O)[C@H](O)[C@H]5O)C4(C)C)[C@]3(C)C(=O)C[C@]12C [11-oxo-mogroside V] | 3% | 24% | – | – |
| COc1c(C(C)C)cc2c(c1O)C1(C(=O)O)CCCC(C)(C)C1CC2 (stereo not drawn) [12-O-Methylcarnosic acid] | 5% | 11% | – | – |
| C=C1C2CC3(C1O)C1CC4C5(C)CCC(O)C4(C1N(CC)C5)C3CC2O (stereo not drawn) [12‐Epinapelline] | 0% | 9% | – | – |
| CCc1ccc(O)c2cc3c(nc12)-c1cc2c(c(=O)n1C3)COC(=O)[C@]2(O)CC [12‐Ethyl‐9‐hydroxycamptothecin] | 16% | 27% | – | – |
| COc1ccc2c(C)c3[n+](cc2c1OC)CCc1cc2c(cc1-3)OCO2.[Cl-] [13‐Methylberberine (chloride)] | 0% | 0% | – | – |
| C=C1CC[C@@H]2[C@](C)(CO)[C@H](O)CC[C@]2(C)[C@@H]1/C=C/C1=CCOC1=O [14-Deoxy-11,12-didehydroandrographolide] | 0% | 6% | – | – |
| C/C=C1/CN2[C@H]3Cc4c([nH]c5ccccc45)[C@]2(O)C[C@@H]1[C@@]3(CO)C(=O)OC [16‐Epivoacarpine] | 7% | 2% | – | – |
| C/C1=C\[C@@H]2[C@H](C/C=C(/CO)[C@@H](O)[C@@H]3[C@@H](O)[C@@H](C)C[C@]3(O)C1=O)C2(C)C [17-Hydroxyisolathyrol] | 13% | 29% | – | – |
| CC1(C)[C@@H](O)CC[C@]2(C)[C@H]3C(=O)C=C4[C@@H]5C[C@@](C)(C(=O)O)CC[C@]5(C)CC[C@@]4(C)[C@]3(C)CC[C@@H]12 [18β-Glycyrrhetinic acid] | 15% and 6% | – | – | – |
| CC(C)=CCC[C@@](C)(O)[C@H]1CC[C@]2(C)[C@@H]1[C@H](O)C[C@@H]1[C@@]3(C)CC[C@H](O)C(C)(C)[C@@H]3[C@@H](O[C@@H]3O[C@H](CO)[C@@H](O)[C@H](O)[C@H]3O[C@@H]3O[C@@H](C)[C@H](O)[C@@H](O)[C@H]3O)C[C@]12C [20(R)-Ginsenoside Rg2] | 0% | 8% | – | – |
| CC(C)=CCC[C@@](C)(O)[C@H]1CC[C@]2(C)[C@@H]1[C@H](O)C[C@@H]1[C@@]3(C)CC[C@H](O[C@@H]4O[C@H](CO)[C@@H](O)[C@H](O)[C@H]4O)C(C)(C)[C@@H]3CC[C@]12C [20(R)-Ginsenoside Rh2] | 11% | 6% | – | – |
| CC(C)=CCC[C@@](C)(O)[C@H]1CC[C@]2(C)[C@@H]1[C@H](O)C[C@@H]1[C@@]3(C)CC[C@H](O)C(C)(C)[C@@H]3[C@@H](O)C[C@]12C [20(R)-Protopanaxatriol] | 0% | 21% | – | – |
| CC(C)=CCC[C@](C)(O)[C@H]1CC[C@]2(C)[C@@H]1[C@H](O)C[C@@H]1[C@@]3(C)CC[C@H](O[C@@H]4O[C@H](CO)[C@@H](O)[C@H](O)[C@H]4O[C@@H]4O[C@H](CO)[C@@H](O)[C@H](O)[C@H]4O)C(C)(C)[C@@H]3CC[C@]12C [20(S)-Ginsenoside Rg3] | 0% | 0% | – | – |
| CC1=C[C@@H]2C(=O)[C@]3(C=C(C)[C@H](O)[C@@]3(O)[C@@H]1O)[C@H](C)C[C@@H]1[C@H]2C1(C)C [20-Deoxyingenol] | 0% | 21% | – | – |
| C=C(C)[C@@H]1CC[C@]2(C(=O)O)CC[C@]3(C)[C@H](CC[C@@H]4[C@@]5(C)CC[C@H](O)[C@@](C)(CO)[C@@H]5CC[C@]43C)[C@@H]12 [23-Hydroxybetulinic acid] | 13% | 5% | – | – |
| CC(=O)O[C@@H]1C[C@@]23C[C@@]24CC[C@H](O[C@@H]2OC[C@@H](O)[C@H](O)[C@H]2O)C(C)(C)[C@@H]4CC[C@H]3[C@]2(C)C[C@@H]3O[C@@]4(C[C@@H](C)[C@@H]3[C@@]12C)OC[C@@]1(C)O[C@@H]41 [23-epi-26-Deoxyactein] | 0% | 5% | – | – |
| CC(C)CCC[C@@H](C)[C@H]1CC[C@@]2(C)C3=C(CC[C@]12C)[C@@]1(C)CC[C@H](O)C(C)(C)[C@@H]1CC3 [24,25-Dihydrolanosterol] | 3% | 4% | – | – |
| C=C(CC[C@@H](C)[C@H]1CC[C@@]2(C)[C@@H]3CC[C@H]4C(C)(C)[C@@H](OC(=O)/C=C/c5ccc(O)c(OC)c5)CC[C@@]45C[C@@]35CC[C@]12C)C(C)C [24-Methylenecycloartanyl ferulate] | – | – | 0 | 11 |

| SMILES | Percentage of motility inhibition 0 h [1] | Percentage of motility inhibition 24 h [2] | Percentage of motility inhibition 0 h (110 µM) [%] | Percentage of motility inhibition 24 h (110 µM) [%] |
| --- | --- | --- | --- | --- |
| CC(C)=CCc1c(O)cc2c(c1O)C(=O)C[C@@H](c1ccc(O)cc1)O2 [(2S)‐6‐Prenylnaringenin] | 0% | 0% | – | – |
| COc1cc(O)c(CC=C(C)C)c2c1C(=O)C[C@@H](c1ccc(O)cc1)O2 [(2S)‐Isoxanthohumol] | 0% | 2% | – | – |
| CC(C)=CCC[C@@](C)(O)[C@H]1CC[C@]2(C)[C@@H]1[C@H](O)C[C@@H]1[C@@]3(C)CC[C@H](O[C@@H]4O[C@H](CO)[C@@H](O)[C@H](O)[C@H]4O[C@@H]4O[C@H](CO)[C@@H](O)[C@H](O)[C@H]4O)C(C)(C)[C@@H]3CC[C@]12C [(20R)-Ginsenoside Rg3] | 22% | 15% | – | – |
| CC(C)=CCC[C@@](C)(O)[C@H]1CC[C@]2(C)[C@@H]1[C@H](O)C[C@@H]1[C@@]3(C)CC[C@H](O)C(C)(C)[C@@H]3[C@@H](O[C@@H]3O[C@H](CO)[C@@H](O)[C@H](O)[C@H]3O)C[C@]12C [(20R)-Ginsenoside Rh1] | 13% | 5% | – | – |
| CC(C)=CCC[C@@](C)(O)[C@H]1CC[C@]2(C)[C@@H]1[C@H](O)C[C@@H]1[C@@]3(C)CC[C@H](O)C(C)(C)[C@@H]3CC[C@]12C [(20R)-Protopanaxadiol] | 0% | 43% | – | – |
| CC(C)=CCC[C@](C)(O)[C@H]1CC[C@]2(C)[C@@H]1[C@H](O)C[C@@H]1[C@@]3(C)CC[C@H](O)C(C)(C)[C@@H]3CC[C@]12C [(20S)-Protopanaxadiol] | 21% | 10% | – | – |
| CC(C)=CCC[C@](C)(O)[C@H]1CC[C@]2(C)[C@@H]1[C@H](O)C[C@@H]1[C@@]3(C)CC[C@H](O)C(C)(C)[C@@H]3[C@@H](O)C[C@]12C [(20S)-Protopanaxatriol] | 31% | 32% | – | – |
| CC12CCC(CC1=O)C2(C)C (stereo not drawn) [(+)-Camphor] | 2% and 0% | 5% and 0% | – | – |
| C=C1[C@H]2CC[C@@H]3[C@H]2C(C)(C)CCC[C@]13C [(+)-Longifolene] | 3% | 1% | – | – |
| CC12CCC(CC1=O)C2(C)C (stereo not drawn) [(+)‐Camphor] | 31% | 1% | – | – |
| Oc1cc(O)c2c(c1)O[C@H](c1cc(O)c(O)c(O)c1)[C@@H](O)C2 [(+)‐Gallocatechin] | 0% | 12% | – | – |
| COC1=CC(=O)OC(/C=C/c2ccccc2)C1 (stereo not drawn) [(+)‐Kavain] | 38% | 14% | – | – |
| COc1ccc2c(c1O)-c1c(O)c(OC)cc3c1[C@H](C2)[N+](C)(C)CC3.[Cl-] [(+)‐Magnoflorine (chloride)] | 0% | 0% | – | – |
| COc1ccc2c(c1O)-c1c(O)c(OC)cc3c1[C@H](C2)[N+](C)(C)CC3.[I-] [(+)‐Magnoflorine (iodide)] | 10% | 8% | – | – |
| CC1=CC[C@@]23C[C@@H]1C(C)(C)[C@@H]2CC[C@H]3C [(-)-Cedrene] | 0% | 17% | – | – |
| Oc1ccc2c(c1)OC[C@H]1c3cc4c(cc3O[C@@H]21)OCO4 [(-)-Maackiain] | 26% | 26% | – | – |
| O=C1C=C2C=C[C@@H]3C[C@@]2(O1)[C@H]1CCCCN31 [(-)-Securinine] | – | 5% | – | – |
| CC1=CCC2CC1C2(C)C (stereo not drawn) [(-)-α-Pinene] | 0% | 6% | – | – |
